Measurements taken from patent US8012414B2, “Sterilization of drugs using supercritical carbon dioxide sterilant” (Novasterilis, priority 2007, dated 2011).

Test: State of micro-crystalline/powder drug after supercritical CO2 sterilization with peracetic acid additive
Assay type: physicochemical
Details: 1500 psi, 35° C., 180 minutes, Peracetic Acid 16 mL
Procedure: For these products, the input or flow of CO2 through valve 24 into the reactor pressure vessel 22 is regulated to 0.01 to 5 psi/second. Regulating the rate of pressurization is also intended to control mass flow (1000 mg/second) of CO2 into the reactor pressure vessel 22. In the initial fill, the valve 24 is opened and allowed to flow at the regulated rate using the ambient pressure of the CO2 supply from the gas cylinder 12. The CO2 supply pressure can range from 75 psi to approximately 900 psi or greater. Once the pressure in reactor pressure vessel 22 reaches equilibrium with the CO2 supply source pressure, the pumping of the CO2 using the carbon dioxide booster 16 begins. […] Once the reactor pressure vessel 22 reaches its operating pressure of 1500 psi, the process is allowed to continue through its normal path. Upon completion of the desired time period at the operating temperature and pressure, depressurization of the reactor pressure vessel 22 then occurs. […] Regulating the rate of depressurization is also intended to control of mass flow of CO2 out of the reactor pressure vessel 22. The rate of depressurization is controlled at this rate until the ambient pressure in the reactor pressure vessel 22 is zero or at equilibrium with the atmospheric pressure. Ambient conditions are generally zero psi and 25 degrees C. […]

State of the Corticosteroid drug after sterilization (look and feel of powder) (CO2 pressurization 5 psi/second, depressurization 50 psi/second): unchanged
State of the Corticosteroid drug after sterilization (look and feel of powder) (CO2 pressurization 75 psi/second (unrestricted), depressurization 100 psi/second): changed
Substance: Methyl-Prednisone
